Measurements: article PMC6450673, “Targeted degradation of aberrant tau in frontotemporal dementia patient-derived neuronal cell models” (eLife, 2019)
Values joined by “and” are separate entries in the source; they are usually repeats but may differ in a detail not shown here. Equal entries are not always repeated.

Tested on: P-tau S396 in A152T neurons
Test: Western blot of P-tau S396 in A152T neurons
Type: cell-based, human
Conditions: for S396 P-Tau (relative to vehicle): 4 h treatment
Excerpt: Cells from individuals carrying the tau risk variant A152T (c.1407G > A; NCBI RefSeq NM_001123066, rs143624519), the autosomal dominant mutation P301L (c.C1907T; NCBI NM_001123066, rs63751273), or age-matched non-mutant WT tau were employed in this study (Figure 2—source data 1). Dermal fibroblasts from the tau-P301L carrier and the healthy individual were generated from a skin biopsy from subjects within the MGH Frontotemporal Disorders Unit as part of the MGH Neurodegeneration Repository. Approval for human subjects’ work was obtained under a Partners/MGH-approved IRB Protocol (#2010P001611/MGH). Fibroblasts were reprogrammed into iPSCs, which were subsequently converted into cortical-enriched neural progenitor cells (NPCs) and differentiated into neuronal cells as previously described ([Almeida et al., 2012]; [Seo et al., 2017]; [Silva et al., 2016]; [Sheridan et al., 2011]) (Silva MC, Manuscript in preparation, 2019). Briefly, cells were cultured in 6-well (Fisher Scientific Corning, Pittsburgh, PA) or 96-well (Fisher Scientific Corning) plates coated with poly-ornithine (20 μg/mL in water, Sigma, St. Louis, MO) and laminin (5 μg/mL in PBS, Sigma) (POL-coated), in DMEM/F12-B27 media [70% DMEM (Gibco, Carlsbad, CA), 30% Ham’s-F12 (Fisher Scientific Corning), 2% B27 (Gibco), 1% penicillin-streptomycin (Gibco)]. Media was supplemented with EGF (20 ng/mL, Sigma), FGF (20 ng/mL, Stemgent, Cambridge, MA) and heparin (5 μg/mL, Sigma), to promote NPC proliferation and expansion. The growth factors were withdrawn to promote neural differentiation for 6 to 8 weeks, with half media change two times per week. Cell lines’ identity was authenticated by SANGER sequencing, karyotyping and ACGH analysis at different stages of culture maintenance from iPSC to NPC. All working cell lines tested negative for mycoplasma contamination.
Compound treatment in six-well plates was performed in 2 mL media volume by removing 1 mL of conditioned media from the culture and adding 1 mL of new media pre-mixed with the compound at the appropriate 2X concentration, followed by incubation at 37°C for the designated period of time. Compound treatment in 96-well plates was performed in 100 μL media volume by adding compound directly to each well, followed by incubation at 37°C. When testing the effect of drug pre-treatment, the first compound was added as described above for the period of time needed, and then QC-01–175 was added directly onto the media without media exchange.
Neurons differentiated in six-well plates for 6 weeks were washed and collected in PBS, lysed in RIPA buffer (Boston Bio-Products, Boston, MA) supplemented with 2% SDS (Sigma), protease inhibitors cocktail (Roche Complete Mini tablets, Mannheim, Germany), and phosphatase inhibitors cocktail (Sigma), followed by water sonication (Bransonic Ultrasonic Baths, Thomas Scientific, Danbury, CT) and 20,000 g centrifugation for 20 min. Supernatants were transferred to new tubes and total protein concentration was quantified with the Pierce BCA Protein Assay Kit (ThermoFisher Scientific, Carlsbad, CA). Human recombinant tau protein ladder was purchased from Sigma. Electrophoresis were performed with the Novex NuPAGE SDS-PAGE Gel System (Invitrogen, Carlsbad, CA), by running 10 μg of total protein (pre-boiled in SDS-DTT loading buffer, NEB, Ipswich, MA) on pre-cast SDS-PAGE. Gels were transferred onto PVDF membranes (EMD Millipore) using standard procedures. Membranes were blocked in 5% BSA (Sigma) in Tris-buffered saline with Tween-20 (TBST/Biorad, Hercules, CA) for 2 hr, incubated overnight with primary antibody (see antibody section) at 4°C, followed by corresponding HRP-linked secondary antibody incubation (Cell Signaling Technology, Danvers, MA). […]

| SMILES | lowest concentration with effective degradation of P-tau S396 and high-molecular-weight P-tau S396 (24 hr) [nM] | Dmax, 24h for P-tau S396 (24 hr, averaged across independent replicates (Figure 2—figure supplement 1)) [%] | S396 P-Tau (relative to vehicle) (QC-01-175 0.001 μM) | S396 P-Tau (relative to vehicle) (QC-01-175 0.01 μM) | S396 P-Tau (relative to vehicle) (QC-01-175 0.05 μM) | S396 P-Tau (relative to vehicle) (QC-01-175 0.1 μM) | S396 P-Tau (relative to vehicle) (QC-01-175 0.5 μM) | S396 P-Tau (relative to vehicle) (QC-01-175 1 μM) | S396 P-Tau (relative to vehicle) (QC-01-175 10 μM) | effect on levels of P-tau S396 (24 hr, all concentrations tested, western blot and ELISA) |
| --- | --- | --- | --- | --- | --- | --- | --- | --- | --- | --- |
| O=C(CCc1ccc2c(c1)[nH]c1ccncc12)NCCOCCOCCNc1cccc2c1C(=O)N(C1CCC(=O)NC1=O)C2=O (stereo not shown) [QC-01–175] | 100 | 85 | 0.90 and 1.03 and 1.29 and 1.23 and 0.94 and 0.98 | 0.75 and 0.86 and 1.08 and 1.03 and 0.78 and 0.81 and 0.97 and 0.82 | 0.69 and 0.79 and 0.99 and 0.94 and 0.72 and 0.75 | 0.16 and 0.19 and 0.24 and 0.22 and 0.17 and 0.20 and 0.18 | 0.38 and 0.44 and 0.55 and 0.53 and 0.40 and 0.42 | 0.52 and 0.59 and 0.75 and 0.71 and 0.54 and 0.55 and 0.56 | 0.55 and 0.63 and 0.79 and 0.75 and 0.57 and 0.93 and 0.80 and 0.59 | – |
| O=C(CCc1ccc2c(c1)[nH]c1ccncc12)NCCOCCOCCNc1cccc2c1C(=O)N(C1CCCNC1=O)C2=O (stereo not shown) [QC-03–075] | – | – | – | – | – | – | – | – | – | no effect |
